Results on 6 compounds are retold here after patent publication US12691129B2, “Use of carotenoids in the treatment of senescence-related diseases” (ALGAKTIV, S.L., priority 2019, dated 2026).

Where two headings read alike, the source gives them in different places.

One experiment deals with COL1A1 in LX2 cells. In words: COL1A1 expression in LX2 cells (qPCR, western blot). It is filed as cell-based, human. The following applies: 10 μM, vs vehicle; for inhibition of COL1A1 transcription: quantitative PCR. Here is the method: (§1) To evaluate the effect of amarouciaxanthin A on HSC activation, the immortalized human cell line LX2 was used. Additionally, primary HSC were extracted from cirrhotic rats which had been subjected to carbon tetrachloride inhalation. In both cases, cells were cultured for 24 h before adding the compound. After that, either amarouciaxanthin A at 10 μM or the vehicle (DMSO) was added to the culture. Cells were harvested at 24 and 72 h post treatment and were lysed to analyze fibrotic biomarkers. Gene transcription was determined by quantitative PCR at 24 and 72 h and protein expression by western blotting at 72 h. α-smooth muscle actin (α-SMA) was analyzed in rat HSC. Collagen I al (COL1A1), which is the main component of the extracellular matrix, was analyzed in LX2.

The test system of another experiment is MV-4-11 cells. Put plainly: MTT cytotoxicity assay in MV-4-11 cells. It is filed as cell-based, Human. The following applies: 6 replicates, read-out: IC50 (μM) (mean ± SD). How it is done: Human MV-4-11 and PL-21 cell lines were used to evaluate fucoxanthin and amarouciaxanthin A effects in combination with the BCL-2 family inhibitor Navitoclax (ABT-263) and Venetoclax (ABT-199). […] For cytotoxicity determination, MV-4-11 cells and PL-21 cells were plated in 96-well microplates at a density of 10^4 cells/well. After 24 hours, different concentration combinations of Navitoclax or Venetoclax and fucoxanthin or amarouciaxanthin A were added. […] DMSO was used as vehicle control. After this period, 50 μL of SDS 10% were added to the negative control wells (0% viability, 100% mortality). Then, culture media was replaced by fresh media with 10 μL of MTT 5 mg/ml in PBS in each well. […] Next, culture media was removed and 100 μL of extraction buffer (SDS, DSA, acetic acid 2%, pH 4.7) were added to each well. […] Finally, plates were read at 570 nm with the spectrophotometer Multiskan Ascent (MTX Lab systems). The potency of each product was determined through the calculation of IC50 (half maximal inhibitory concentration).
Background: Tetrazolium dyes change colour on reduction, which living cells bring about.

Experiment [1] relates to α-SMA in HSC from cirrhotic rats. In words: α-SMA expression in primary HSC from cirrhotic rats (qPCR, western blot). It is filed as cell-based, rat. The following applies: 10 μM, vs vehicle; for inhibition of α-SMA transcription: quantitative PCR. Here is the method: as §1
For orientation: Quantitative PCR measures a nucleic acid by following its amplification.

In another experiment the test system is BJ-11 cells. Put plainly: Senescence associated β-galactosidase (SA-β-Gal) staining in BJ-11 cells. It is filed as cell-based, human. Here is the method: BJ-11 cell line (human primary skin fibroblasts) was cultured in MEM supplemented with 10% FCS plus 2 mM L-glutamine. All cells were cultured at 37° C. in a humidified 5% CO2-atmosphere and were consistently free of mycoplasma, as evaluated by PCR. All passages were performed between 80 and 90% of confluence and with viability greater than 90%.
In order to evaluate the effects of fucoxanthin on senescence, 10^4 BJ-11 cells were seeded in 24-well plates. Cultures were incubated with different concentrations of palbociclib (Palbo) or doxorubicin (Doxo), as senescence inductors, and fucoxanthin (Fuco), as described in Table 6.
Doxorubicin treatments were performed only for 24 hours. After that, doxorubicin was removed and cells were cultured in complete culture medium during the periods of time indicated below. On the other hand, palbociclib was constantly present in the culture medium and added fresh periodically.
Two different approaches were followed: • Approach 1: Fucoxanthin effects on senescence prevention
After 7 days, β-galactosidase activity was determined.
After that, treatment with fucoxanthin was performed for 7 days. At the end of this period […] activity was determined.
After treatments, SA-β-galactosidase staining was used for the determination of senescence-associated β-galactosidase expression in BJ-11 cells. β-galactosidase staining was performed based on manufacturer's recommendations (9860S, Cell Signaling Technology). Growth media was removed from the cells and the plate was rinsed once with PBS. Then, fixative solution was added to each well and cells were allowed to fix for 10-15 min at room temperature. The plate was rinsed twice with PBS before adding β-Galactosidase Staining Solution to each well. Finally, the plate was incubated at 37° C. for 24 h in a dry incubator (no CO2) for preventing changes in pH, which may affect staining results. The amount of cells positive in β-galactosidase activity (stained in blue) was evaluated by manual stained-cell counting.

A further experiment concerns PL-21 cells. Put plainly: MTT cytotoxicity assay in PL-21 cells. It is filed as cell-based, Human. The following applies: 72 hours, 6 replicates, read-out: IC50 (μM) (mean ± SD). Here is the method:
Human MV-4-11 and PL-21 cell lines were used to evaluate fucoxanthin and amarouciaxanthin A effects in combination with the BCL-2 family inhibitor Navitoclax (ABT-263) and Venetoclax (ABT-199). Cells were cultured in RPMI media supplemented with 10% FCS at 37° C. in a humidified 5% CO2-atmosphere, and were consistently free of mycoplasma, as evaluated by PCR. All passages were performed between 80 and 90% of confluence and with viability above 90%.
For cytotoxicity determination, MV-4-11 cells and PL-21 cells were plated in 96-well microplates at a density of 10^4 cells/well. After 24 hours, different concentration combinations of Navitoclax or Venetoclax and fucoxanthin or amarouciaxanthin A were added. Plates were incubated for 72 hours at 37° C. and 5% CO2. DMSO was used as vehicle control. After this period, 50 μL of SDS 10% were added to the negative control wells (0% viability, 100% mortality). Then, culture media was replaced by fresh media with 10 μL of MTT 5 mg/ml in PBS in each well. Plates were incubated for 4 hours at 37° C. and 5% CO2. Next, culture media was removed and 100 μL of extraction buffer (SDS, DSA, acetic acid 2%, pH 4.7) were added to each well. […] Finally, plates were read at 570 nm with the spectrophotometer Multiskan Ascent (MTX Lab systems). The potency of each product was determined through the calculation of IC50 (half maximal inhibitory concentration).

In a further experiment the test system is Sk-Mel-103 cells. Put plainly: MTT cytotoxicity of Navitoclax in Sk-Mel-103 cells after palbociclib/fucoxanthin pretreatment. It is filed as cell-based, human. The following applies: for IC50: 6 replicates, read-out: IC50 of Navitoclax (μM) (mean ± SD). How it is done: (§2) Sk-Mel-103 cell line (human skin melanoma) was cultured in DMEM-high glucose supplemented with 10% FCS. All cells were cultured at 37° C. in a humidified 5% CO2-atmosphere and were consistently free of mycoplasma, as evaluated by PCR. All passages were performed between 80 and 90% of confluence and with viability greater than 90%.
10^6 Sk-Mel-103 cells were seeded in 24-well plates. Cultures were incubated with palbociclib (Palbo), as a senescence inductor; fucoxanthin; or a combination of them, as described in Table 4. After 7 days, cultures were treated with different concentrations of the BCL2 inhibitor Navitoclax. The cytotoxicity of each condition was determined through the calculation of IC50 (half maximal inhibitory concentration) by an MTT assay.
For cytotoxicity determination, cells were plated in 96-well microplates at a density of 10^4 cells/well. After the initial treatments described above, different concentrations of Navitoclax were added. Plates were then incubated for 72 hours at 37° C. and 5% CO2. DMSO was used as vehicle control. After this period, 50 μL of SDS 10% were added to the negative control wells (0% viability, 100% mortality). Then, culture media was replaced by fresh media with 10 μL of MTT 5 mg/ml in PBS in each well. Plates were incubated for 4 hours at 37° C. and 5% CO2. Next, culture media was removed and 100 μL of extraction buffer (SDS, DSA, acetic acid 2%, pH 4.7) were added to each well. After incubating plates for 1 hour at 37° C. and 5% CO2, cultures were homogenized. Finally, plates were read at 570 nm with the spectrophotometer Multiskan Ascent (MTX Lab systems). The potency of each product was determined through the calculation of IC50 (half maximal inhibitory concentration).

Experiment [2] concerns IL-1β, IL-6 and IL-8 secretion by SK-Mel-103 cells. In words: Secreted interleukins (ELISA) in senescent SK-Mel-103 cells. It is filed as cell-based, human. The following applies: fucoxanthin 4 μM, p value<0.01. How it is done: as §2
10^6 Sk-Mel-103 cells were seeded in 24-well plates. Cultures were incubated with palbociclib or doxorubicin, as senescence inductors; fucoxanthin; or a combination of them, as described in Table 9. After treatments, cells and supernatants were collected by centrifugation and stored at −20° C.
Secretion of IL-1β, IL-6 and IL-8 was quantified in the supernatants by commercial ELISA kits (DY201, DY206, DY208, R&D Systems) following manufacturer's instructions. Obtained values were normalized by total cell protein content in each well at the end of the experiment, quantified by Bradford assay (B6916, Sigma-Aldrich). A second normalization was performed by dividing the secreted interleukin after fucoxanthin incubations by its corresponding control of senescent cells.
Background: In an ELISA, binding on a coated surface is turned into a signal by an enzyme label.

[3] abbreviates: senescence induced with doxorubicin 125 nM, vs senescent cells (FIG. 2).
The mark [4] stands for this setting: senescence induced with palbociclib 1 μM, vs senescent cells (FIG. 1).

For orientation: IC50 means the concentration that gives 50% inhibition.

Consider `CC1=CC(=O)CC(C)(C)[C@@]1(O)CC(=O)/C(C)=C/C=C/C(C)=C/C=C/C=C(C)/C=C/C=C(\C)C=C=C1C(C)(C)C[C@H](O)C[C@@]1(C)O` [Amarouciaxanthin A, amarouciaxanthin A], for which the “inhibition of COL1A1 transcription” value with COL1A1 in LX2 cells (24 h) is “around 50%”; with COL1A1 in LX2 cells (72 h), “around 80%”. For the same compound, the “reduction of collagen expression (protein)” value in the experiment on COL1A1 in LX2 cells (72 h, western blot) is recorded as “around 95%”. Besides, the IC50 in the experiment on MV-4-11 cells (72 hours) came to 1.45 ± 0.27 µM. The “inhibition of α-SMA transcription” value in experiment [1] (24 h) and in experiment [1] (72 h) was “around 80%” throughout. Besides, the “reduction of α-SMA expression at the protein level” value in experiment [1] (72 h, western blotting) amounted to 95%.
For the compound `COc1cccc2c1C(=O)c1c(O)c3c(c(O)c1C2=O)C[C@@](O)(C(=O)CO)C[C@@H]3O[C@H]1C[C@H](N)[C@H](O)[C@H](C)O1` [Doxorubicin, doxorubicin, reference compound], the “Percentage of cells positive in β-galactosidase activity” value (shortened to “Percentage of cells positive”) was greater than 80% with BJ-11 cells (Approach 1 (prevention), senescent cells: doxorubicin 25 nM (24 hours) alone, 7 days) and greater than 80% in the experiment with BJ-11 cells (Approach 2 (reversion), senescent cells: doxorubicin 25 nM alone).
With `CC1(C)CCC(c2ccc(Cl)cc2)=C(CN2CCN(c3ccc(C(=O)NS(=O)(=O)c4ccc(N[C@H](CCN5CCOCC5)CSc5ccccc5)c(S(=O)(=O)C(F)(F)F)c4)cc3)CC2)C1` [Navitoclax, navitoclax], the IC50 came out at 1.22 ± 0.12 µM with PL-21 cells; 8.02 ± 1.31 µM in the experiment on Sk-Mel-103 cells (Sk-Mel-103 control cells (no pretreatment)); 4.79 ± 0.911 µM in the experiment with Sk-Mel-103 cells (Sk-Mel-103 control cells + fucoxanthin 4 μM pretreatment 7 days); 0.055 ± 0.005 µM in the experiment on Sk-Mel-103 cells (Sk-Mel-103 senescent cells (palbociclib 1 μM) + fucoxanthin 4 μM pretreatment 7 days); 0.136 ± 0.012 µM in the experiment on Sk-Mel-103 cells (Sk-Mel-103 senescent cells (palbociclib 1 μM, 7 days)); 0.14 ± 0.01 µM in the experiment on MV-4-11 cells (72 hours).
As to `CC(=O)c1c(C)c2cnc(Nc3ccc(N4CCNCC4)cn3)nc2n(C2CCCC2)c1=O` [Palbociclib, palbociclib, reference compound], the “Percentage of cells positive” value in the experiment on BJ-11 cells (Approach 1 (prevention), senescent cells: palbociclib 1 μM alone, 7 days) is recorded as greater than 98%; in the experiment on BJ-11 cells (Approach 2 (reversion), senescent cells: palbociclib 1 μM alone), greater than 95%.
Regarding `CC1(C)CCC(c2ccc(Cl)cc2)=C(CN2CCN(c3ccc(C(=O)NS(=O)(=O)c4ccc(NCC5CCOCC5)c([N+](=O)[O-])c4)c(Oc4cnc5[nH]ccc5c4)c3)CC2)C1` [Venetoclax, venetoclax, reference compound], the IC50 with MV-4-11 cells (Homo sapiens, MV4-11, 72 hours) is 0.0048 µM.
Take fucoxanthin: the IC50 stood at 10.5 ± 1.55 µM in the experiment with PL-21 cells and 1.34 ± 0.07 µM in the experiment with MV-4-11 cells (72 hours). Also, the “Percentage of cells positive” value in the experiment with BJ-11 cells (Approach 1 (prevention), fucoxanthin 10 μM simultaneously with doxorubicin 25 nM, 7 days) is listed as less than 5%; in the experiment with BJ-11 cells (Approach 1 (prevention), fucoxanthin 10 μM simultaneously with palbociclib 1 μM, 7 days), less than 5%; with BJ-11 cells (Approach 2 (reversion), doxorubicin 25 nM, 7 days, then fucoxanthin 10 μM for 7 days), less than 5%; in the experiment with BJ-11 cells (Approach 2 (reversion), palbociclib 1 μM for 7 days, then fucoxanthin 10 μM for 7 days), less than 5%. The “percentage of senescent cells positive in β-galactosidase activity after treatment (in words)” value in the experiment with BJ-11 cells (BJ-11, doxorubicin or palbociclib induced senescence, prevention and reversion, summary of Tables 7 and 8) is given as “reduced”. Further, the “secretion of IL-1β” value in experiment [2] (setting [3]) and in experiment [2] (setting [4]) was “significantly decreased” each time. In addition, the “secretion of IL-6” value in experiment [2] (setting [3]) and in experiment [2] (setting [4]) was “significantly decreased” in each case. The “secretion of IL-8” value in experiment [2] (setting [3]) and in experiment [2] (setting [4]) was “significantly decreased” each time. For the same compound, in the experiment on Sk-Mel-103 cells (Sk-Mel-103, fucoxanthin 4 μM pretreatment 7 days, summary of Table 5), the “effect of fucoxanthin pretreatment on senolytic activity of Navitoclax” value is listed as “increased the senolytic activity of Navitoclax”.
